US7569229B2, “Monocyte locomotion inhibitory factor” (Center for Blood Research, Inc., priority 1998, dated 2009)

Tests used:
[1] = tested on: human peripheral blood MP; assay: Inhibition of Luminol enhanced chemiluminescence (respiratory burst) in opsonized zymosan activated MP; type: cell-based; conditions: measured as mV/10^6 cells over a 29-30 minute period; six experiments; comparing experimental conditions, except 1 vs 10 μg of construct; FIG. 3A
Protocol: (§1) (b) Preparation of cells. MP (95±2%) and neutrophils (95±2%) were obtained from the peripheral blood of fasting, non-smoking individual donors, using Ficoll-Paque centrifugation and further enrichment of MP by nylon wool adherence. Cell viability was established (≧94%) before and after the experiments by trypan blue dye exclusion.
(§2) (c) MLIF activity. In vitro MLIF activity was assessed either by the inhibition of MP chemotaxis towards zymosan (Sigma) activated serum in double-filter (upper filter 5.0 μm pore size (Nuclepore), lower cell-impermeable filter 8.0 μm pore size (Sartorius)) Boyden chambers, or by the inhibition of MP or neutrophil, Luminol™ (Eastman Kodak) enhanced chemiluminescence after opsonized zymosan particle ingestion, measured in Biorbit 1250 chemiluminometer (LKB) (n>6). In vivo MLIF activity was measured by its capacity to inhibit DNCB (1-chloro-2-4 dinitrobenzene) contact hypersensitivity reactions in individually-caged Harley short hair adult guinea pigs previously (14 days) sensitized with a vesicant DNCB dose (10 mg/ml acetone olive oil (4:1) soaked 5 mm diameter Whatman #2 filter paper disks). […] Disks were removed after 24 h, and redness-induration measured blindly a day later. […]
(§3) In vitro activity of native MLIF and its synthetic custom construct is measured. […]

[2] = tested on: polymorphonuclear eosinophils; assay: Effect on eosinophils (locomotion or metabolism); type: cell-based; conditions: locomotion or metabolism of polymorphonuclear eosinophils
[3] = tested on: DNCB contact hypersensitivity reactions in guinea pigs; assay: Inhibition of DNCB contact hypersensitivity skin reaction; type: in vivo, guinea pig; conditions: for Histology of inhibited DNCB reactions: biopsies, compared to normal, non-interfered DNCB reactions; for DNCB skin reaction (mm diameter, or positive/negative with cut-off 5 mm) compared to PBS or virgin axenic medium control: intradermal injection 0.05 ml, native MLIF 8 μg/ml, custom construct 1, 10 or 100 μg/ml, comparable among them, FIG. 4
Protocol: (c) MLIF activity. In vitro MLIF activity was assessed either by the inhibition of MP chemotaxis towards zymosan (Sigma) activated serum in double-filter (upper filter 5.0 μm pore size (Nuclepore), lower cell-impermeable filter 8.0 μm pore size (Sartorius)) Boyden chambers, or by the inhibition of MP or neutrophil, Luminol™ (Eastman Kodak) enhanced chemiluminescence after opsonized zymosan particle ingestion, measured in Biorbit 1250 chemiluminometer (LKB) (n>6). In vivo MLIF activity was measured by its capacity to inhibit DNCB (1-chloro-2-4 dinitrobenzene) contact hypersensitivity reactions in individually-caged Harley short hair adult guinea pigs previously (14 days) sensitized with a vesicant DNCB dose (10 mg/ml acetone olive oil (4:1) soaked 5 mm diameter Whatman #2 filter paper disks). Intradermal injections of 0.05 ml of either native MLIF (8 μg/ml), MLIF custom construct (0.001-100 μg/ml), or pyrogen free phosphate buffered saline pH 7.4, were applied just beneath and simultaneous to the application of the eliciting dose of DNCB (0.05 mg/ml soaked paper disks). Disks were removed after 24 h, and redness-induration measured blindly a day later. Biopsies were obtained for histological evaluation in selected samples. The animals were not sacrificed.
(f) Statistical analysis. Results of in vitro MLIF activity were analyzed by non-parametric Mann-Whitney or Kruskall-Wallis analysis of variance test, and in vivo activity results by Student's t and Fisher's exact tests.
The reaction is measured in mm diameter against the eliciting dose, or as positive or negative reactions of the same with a cut-off criterium of 5 mm in diameter.

[4] = tested on: human mononuclear phagocytes; assay: Cytoplasmic cyclic AMP in human mononuclear phagocytes; type: cell-based; conditions: interaction through a receptor on human mononuclear phagocytes
[5] = tested on: human peripheral blood neutrophils; assay: Inhibition of Luminol enhanced chemiluminescence (respiratory burst) in opsonized zymosan activated neutrophils; type: cell-based; conditions: measured as mV/10^6 cells over a 29-30 minute period; six experiments; comparing experimental conditions; FIG. 3B
Protocol: as §1, §2, §3

[6] = tested on: human peripheral blood MP; assay: Inhibition of MP chemotaxis towards zymosan activated serum in double-filter Boyden chambers; type: cell-based; conditions: Boyden chamber; native MLIF and construct in similar concentrations, comparable to each other; n=8 for each group; FIG. 3C
Protocol: as §1, §2, §3

Substance | Areas under the curve of chemiluminescence, MP [1] | Effect on other cells, such as eosinophils [2] | Histology of inhibited DNCB reactions [3] | DNCB skin reaction (mm diameter, or positive/negative with cut-off 5 mm) compared to PBS or virgin axenic medium control [3] | Cytoplasmic mediator cyclic AMP [4] | Storage stability (at −70° C.) | Heat stability (incubation at 56° C.) | Areas under the curve of chemiluminescence, neutrophils [5] | Human peripheral blood MP chemotaxis compared to the normal chemotactic runs (i.e., 100%) [6]
M - Q - C - N - S (MQCNS; listed as Entamoeba histolytica) [native MLIF, oligopeptide isolated from the supernatant fluid of axenically grown E. histolytica, about 583 Daltons] | significantly (p<0.01) different | does not affect | scarce mononuclear perivascular infiltrate | significantly different (p<0.001) | increase | storable | heat stable | significantly (p<0.01) different | significantly lower (p<0.01)
MQCNS [custom construct] | significantly (p<0.01) different |  | scarce mononuclear perivascular infiltrate | significantly different (p<0.001) |  |  |  | significantly (p<0.01) different | significantly lower (p<0.01)
